Literature values in paper PMC9782211 (Microorganisms, 2022).

Tested on: hERG channels
Conditions: cited from earlier work
Description: Inhibition of the potassium current flowing through the cardiac hERG ion channel (Kv11.1) has been correlated to life threatening torsades de pointes cardiac arrhythmia. Effects on hERG channel currents have been observed for a number of drugs, including antihistamines, antipsychotics, and many other drugs from nearly all therapeutic areas and chemical classes, and have become a serious safety concern in drug discovery and development. Inhibition of hERG channel currents have also been reported for antibiotics, in particular for macrolides, raising concerns about the cardiac safety of a ...

**Q.** With BeKm-1 as the substance, how does the “block of hERG channels” value read?
**A.** Its value is “high affinity”.
